Source: patent publication US8092825B2, “Glycan binding proteins as therapeutic targets for retinal disorders and treatment methods based thereon” (The University of Tennessee Research Foundation, priority 2007, dated 2012)
Entries after “also recorded” stand apart in the source; their conditions may differ.

Key:
[1] = tested on: putative retinal glycan receptor on Müller cells; assay: Binding of biotinylated-NA3 to embryonic retinas, anti-biotin immunostaining and confocal microscopy; parameters: species or system Xenopus laevis; settings: biotinylated-NA3 alone
Text: Embryonic Xenopus laevis retinas were exposed to two experimental conditions: (1) biotinylated-NA3; and (2) biotinylated-NA3 with a molar excess of IPTG as a competitive sugar, to eliminate non-specific interactions of NA3 with retinal proteins. After exposure to the sugars followed by immunostaining using a mouse anti-biotin primary antibody and a chicken anti-mouse secondary antibody coupled to Alexa fluor 594 using standard protocols, eyes were bisected and viewed using a confocal microscope.
2. Localization of the glycan receptor using biotinylated-NA3 probe. RPE-deprived retinas from stage 33/34 Xenopus laevis tadpoles are exposed to Niu-Twitty medium containing 10^−7 M biotinylated-NA3 for 3 hours, followed by fixation in 4% paraformaldehyde. Control retinas are incubated in NA3+10^−5 M IPTG to reveal non-specific binding of the NA3 ligand. Subsequent procedures are identical to those described above for immunohistochemical localization. In this instance, however, the following primary and secondary antibodies are utilized: anti-biotin, mouse IgG (Molecular Probes) as primary antibody; and anti-mouse chicken IgG labeled with Alexa Fluor 488 (Molecular Probes). To confirm the localization to a particular retinal cell type, sections are co-stained with antisera that are cell type-specific (e.g., directed against Müller cell- or photoreceptor-specific gene products).

[2] = tested on: photoreceptor OS membrane assembly in RPE-deprived retinas; assay: In vitro assay of photoreceptor outer segment (OS) membrane assembly in RPE-deprived Xenopus laevis tadpole retinas; assay type: cell-based; settings: for average OS organizational grade (mean±SEM; grade 4 = 100% organization): 5×10^−3 M sugar, three days in culture; for ability to promote OS assembly in the presence of the Müller cell inhibitor: with 1×10^−5 M α-AAA, IPTG at 5×10^−5 M
Text: We have used various oligosaccharides at concentrations ranging over four orders of magnitude to evaluate the ability of these oligosaccharides to support OS membrane assembly in RPE-deprived retina, using a Xenopus laevis system that allows for convenient analysis of OS membrane formation in vitro. In the RPE-deprived cultures, the RPE continues to be present as a cluster of cells at the ora serrata; however throughout the posterior pole and periphery of the retina, the RPE layer has been removed from its normal position adjacent to the photoreceptors.
Intact retinas were removed from stage 33/34 Xenopus laevis tadpoles and placed into culture in Niu-Twitty medium for three days as described above. Using this paradigm, all OS material is elaborated while in culture. […]

[3] = tested on: photoreceptor OS membrane assembly in RPE-deprived retinas; settings: previous studies (60, 61); cited from earlier work
[4] = tested on: xrds38 isoform of Xenopus peripherin2; assay: Antisense oligonucleotide knockdown in isolated Xenopus laevis eye rudiments; assay type: cell-based; settings: steady-state level vs retinas with intact RPE
Text: We have developed an assay system using intact isolated Xenopus laevis eye rudiments coupled with antisense oligonucleotides that is well suited to evaluating the functional role of specific gene products, e.g., in OS membrane assembly. As an example of the capability of this assay system, we generated a loss-of-function model for peripherin2, a genetically and phenotypically well-characterized gene (76-82). Photoreceptors of Xenopus laevis express three distinct isoforms of the peripherin2 gene; cones express xrds38 exclusively, whereas rods express […] xrds38 (83). For purposes of validation of the antisense assay system, our evaluation was directed to xrds38. Phosphorothioated oligonucleotides (two 20-base antisense oligonucleotides and one 20-base sense oligonucleotide) derived from the 5' end of the coding sequences of the xrds38 isoform of Xenopus peripherin2 were utilized. Additional controls included: retinas with an intact RPE, and retinas devoid of RPE with 5 mM exogenous lactose added to the medium. […] The percentage of retinal cells that had positive uptake of the FITC-conjugated oligonucleotide was determined by comparing the volume of bright to dark areas in optical sections obtained with the confocal microscope. […] The steady-state levels of each protein were compared to the levels detected in control retinas maintained with an intact RPE cell layer.

Müller cells = settings: 1×10^−5 M, RPE-supported retinas; cited from earlier work

## asialo, galactosylated, triantennary (NA3) oligosaccharide
[1]
  binding to photoreceptors: did not bind to any portion of photoreceptors
[2]; 5×10^−10M
  support of OS assembly in the absence of RPE: robust support of OS assembly
[2]; RPE-deprived retinas
  concentration that optimally supports OS assembly (maximum effect): 0.0005 µM

## OC[C@H]1O[C@@H](O[C@H]2[C@H](O)[C@@H](O)C(O)O[C@@H]2CO)[C@H](O)[C@@H](O)[C@H]1O (some centres unmarked) [lactose]
[3]
  ability to let OS organize in the absence of the RPE (permissive / non-permissive sugars): permit OS to organize
[2]; 5×10^−3 M (5 mM)
  support of OS assembly in the absence of RPE: supports the proper formation of nascent OS; also recorded: OS assembly is supported
[2]; RPE-deprived retinas
  concentration that optimally supports OS assembly (maximum effect): 5000 µM
  average OS organizational grade (mean±SEM; grade 4 = 100% organization): 2.50±0.28
[2]; RPE-deprived retinas, 5×10^−3 M
  share of OS membranes highly organized: 50 to 75%
[4]
  opsin protein level relative to control: not significantly different from controls
  peripherin2 protein level relative to control: slightly elevated above control

## asialo, galactosylated, biantennary (NA2) oligosaccharide
[2]; RPE-deprived retinas
  concentration that optimally supports OS assembly (maximum effect): 0.005 µM

## O=C[C@H](O)[C@@H](O)[C@@H](O)[C@H](O)CO [galactose]
[3]
  ability to let OS organize in the absence of the RPE (permissive / non-permissive sugars): permit OS to organize

## O=C[C@@H](O)[C@@H](O)[C@H](O)[C@H](O)CO [mannose]
[3]
  ability to let OS organize in the absence of the RPE (permissive / non-permissive sugars): fail to exert any organizational effect
[2]; 5×10^−3 M (5 mM)
  support of OS assembly in the absence of RPE: does not favorably affect the folding of OS; also recorded: fails to support the proper assembly of OS
[2]; RPE-deprived retinas
  average OS organizational grade (mean±SEM; grade 4 = 100% organization): 0.52±0.22

## CC(C)S[C@@H]1O[C@H](CO)[C@H](O)[C@H](O)[C@H]1O [IPTG, isopropyl beta-D-thiogalactopyranoside]
[2]; 5×10^−5 M IPTG with 3H-leucine for two days
  average grade of OS membranes assembled during exposure to the sugar (early part): about 2.88±0.37
[2]; RPE-deprived retinas
  concentration that optimally supports OS assembly (maximum effect): 50 µM
  fold lower concentration than lactose for comparable effect on OS assembly: 100 fold
  ability to promote OS assembly in the presence of the Müller cell inhibitor: severely diminished
[2]; RPE-deprived retinas, 5×10^−5 M IPTG
  average OS grade at maximum response: 2.61±0.37
[2]; two further days in non-supplemented medium after IPTG
  average grade of OS membranes assembled after removal of the sugar (later stage): 1.21±0.31

## NC(CCCC(=O)O)C(=O)O (stereo not drawn) [α-AAA, Alpha-aminoadipic acid]
Müller cells
  effect on Müller cell morphology and protein expression patterns: selective alterations
  effect on ability of photoreceptors to synthesize opsin: no affect
  effect on assembly of nascent OS membranes: interfere with the ability of these cells to properly assembly nascent OS membranes

## C[C@H](O)[C@@H](O)[C@@H](O)[C@H](O)C=O [fucose]
[3]
  ability to let OS organize in the absence of the RPE (permissive / non-permissive sugars): fail to exert any organizational effect

B1: PEDF: pigment epithelium derived factor, RPE-secreted protein (protein, UniProt P36955 20-418, looked up)
Pigment epithelium-derived …: QNPASPPEEGSPDPDSTGALVEEEDPFFKVPVNKLAAAVSNFGYDLYRVRSSTSPTTNVLLSPLSVATALSALSLGAEQRTESIIHRALYYDLISSPDIHGTYKELLDTVTAPQKNLKSASRIVFEKKLRIKSSFVAPLEKSYGTRPRVLTGNPRLDLQEINNWVQAQMKGKLARSTKEIPDEISILLLGVAHFKGQWVTKFDSRKTSLEDFYLDEERTVRVPMMSDPKAVLRYGLDSDLSCKIAQLPLTGSMSIIFFLPLKVTQNLTLIEESLTSEFIHDIDRELKTVQAVLTVPKLKLSYEGEVTKSLQEMKLQSLFDSPDFSKITGKPIKLTQVEHRAGFEWNEDGAGTTPSPGLQPAHLTFPLDYHLNQPFIFVLRDTDTGALLFIGKILDPRGP
[2]; RPE-deprived retinas
  ability to promote OS assembly in the presence of the Müller cell inhibitor: able to support proper membrane folding
